Test results: patent publication US9493663B2, “Photopolymerizable inkjet ink, ink cartridge, and printer” (RICOH COMPANY, LTD., priority 2011, dated 2016)

Assay: skin sensitization test (LLNA, Local Lymph Node Assay, OECD test guideline 429), Stimulation Index
Assay type: in vivo
Conditions: SI less than 3 judged negative
Text: As described in literatures (for example, “Functional Material” (Kino Zairyou) 2005, September, Vol. 25, No. 9, p. 55), the compound having a Stimulation Index (SI value) of less than 3, where the Stimulation Index indicates the extent of skin sensitization, is judged as being negative for skin sensitization. […] The lower SI value means lower skin sensitization. […] The SI value of the monomer or the oligomer used is preferably 2 or lower, more preferably 1.6 or lower.
The description “negative” or “none” is equivalent to the SI value of less than 3.

First: C=C(C)C(=O)OCC(C)(C)COC(=O)C(=C)C [Example A1, Neopentyl glycol dimethacrylate]
Second: C=C(C)C(=O)OCC(CC)(COC(=O)C(=C)C)COC(=O)C(=C)C [Example A5, Trimethylolpropane trimethacrylate]
The “SI value (Stimulation Index)” value of the first is higher: 2.0 for the first, 1.9 for the second.

Compared with `C=CC(=O)OCCCCCCCCCCCCCCCCCC` [Example A12, Stearyl acrylate], `C=C(C)C(=O)OCCCCOC(=O)C(=C)C` [Example A13, 1,4-Butanediol dimethacrylate] is lower in “SI value (Stimulation Index)” value: 2.7 for the first, 2.6 for the second.

Compared with `C=CC(=O)OCCCCCCCCCCCCCCCC(C)C` [Example A19, Isostearyl acrylate], `C=C(C)C(=O)OCCCCCCCCCCCCCCCCCC` [Example A21, Stearyl methacrylate] is lower in “SI value (Stimulation Index)” value: 1.4 for the first, 1.2 for the second.

Compared with “Polyethoxylated tetramethylolmethane tetraacrylate [Example A9]”, “Polyethylene glycol dimethacrylate represented by General Formula (1) (n is nearly equal to 2) [Example A23]” is lower in “SI value (Stimulation Index)” value: 1.7 for the first, 1.1 for the second.

Going from “Polyethylene glycol dimethacrylate represented by General Formula (1) (n is nearly equal to 14) [Example A3]” to “Polyethylene glycol dimethacrylate represented by the following General Formula (1) (n is nearly equal to 9) [Example A2]”, the “SI value (Stimulation Index)” value falls from 1.6 to 1.3.

First: Polypropylene glycol diacrylate [Example A14, Polypropylene glycol diacrylate [CH2═CH—CO—(OC3H6)n—OCOCH═CH2 (n is nearly equal to 12)]]
Second: Tricyclodecanedimethanol dimethacrylate [Example A6]
The “SI value (Stimulation Index)” value of the first is higher: 1.5 for the first, 1.3 for the second.

For “γ-Butyrolactone methacrylate [Example A4]”, the “SI value (Stimulation Index)” value was 2.1.

Assay: not given
Conditions: MSDS; equivalent to SI value of less than 3; cited from earlier work

In the case of “Caprolactone-modified dipentaerythritol hexaacrylate [Example A7]”, the “skin sensitization evaluated in MSDS” value is given as “negative”.

Same assay, conditions: literature; equivalent to SI value of less than 3; cited from earlier work

In the case of `C=C(C)C(=O)OC(C)(C)C` [Example A15, t-Butyl methacrylate], the “skin sensitization evaluated in literature” value is given as “negative”.
For `C=C(C)C(=O)OCCCCC` [Example A16, n-Pentyl methacrylate], the “skin sensitization evaluated in literature” value is listed as “negative”.
In the case of `C=C(C)C(=O)OCCCCCC` [Example A17, n-Hexyl methacrylate], the “skin sensitization evaluated in literature” value is listed as “negative”.
